Laboratory results: patent US12558428B2, “Heterobifunctional compounds and their use in treating disease” (Halda Therapeutics OpCo, Inc., priority 2024, dated 2026)
Where two headings read alike, the source gives them in different places.

Assays:
Type in all cases: cell-based
[1] = tested on: T-Rex 293 cells lacking increased expression of estrogen receptor alpha protein; assay: Cellular growth inhibition assay, T-Rex 293 cells, (−) doxycycline; conditions: T-REx-293, 72 h
Summary of the method: (§1)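 Cells of an inducible ERα-expressing T-Rex 293 clone are seeded in charcoal-dextran FBS medium with or without 3 ng/mL doxycycline, then treated after 24 h with compound dilutions (0.5% DMSO) for 72 h. Growth inhibition is measured by CellTiter-Glo luminescence and expressed as GI50.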

[2] = tested on: T-Rex 293 cells having increased expression of estrogen receptor alpha protein; assay: Cellular growth inhibition assay, T-Rex 293 cells, (+) doxycycline; conditions: T-REx-293, 72 h
Summary of the method: as §1

[3] = tested on: MCF7 cells (ATCC #HTB-22); assay: Cellular growth inhibition assay, MCF7 cells purchased from ATCC; conditions: Homo sapiens, MCF7, 144 h
Summary of the method: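 GI50 values come from a four-parameter fit of CellTiter-Glo 2.0 luminescence after six days of compound exposure at 37° C. Seeding density depended on the source: 225 cells/well for ECACC MCF7, 1,500 for ATCC. Medium was RPMI 1640 with 10% FBS and 0.2 U/ml insulin.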

[4] = Table 7-A, T-Rex 293 cells without doxycycline (lacking increased ERα expression), 72 hours, CellTiter-Glo, read-out: (−) Dox GI50
[5] = Table 7-A, T-Rex 293 cells with doxycycline (increased ERα expression), 72 hours, CellTiter-Glo, read-out: (+) Dox GI50
[6] = Table 8-A, MCF7 cells purchased from ATCC, six days, CellTiter-Glo, read-out: GI50
[7] = T-Rex 293 cells without doxycycline, 72 hours, CellTiter-Glo 2.0, read-out: (−) Dox TRex ERa (GI50)
[8] = T-Rex 293 cells with doxycycline-induced ERα expression, 72 hours, CellTiter-Glo 2.0, read-out: (+) Dox TRex ERa (GI50)

GI50 [3, 6] [nM]	SMILES	GI50 [1, 4] [nM]	GI50 [2, 5] [nM]	GI50 ([1]; read-out: (−) Dox TRex ERa (GI50)) [nM]	GI50 ([2]; read-out: (+) Dox TRex ERa (GI50)) [nM]	GI50 [3] [nM]	GI50 [1, 7] [nM]	GI50 [2, 8] [nM]
> 2500	Cc1sc2c(c1C)C(c1ccc(CC3CC4(CCN(c5ccc([C@@H]6c7ccc(O)cc7CC[C@@H]6c6ccccc6)cc5)CC4)C3)cc1)=N[C@@H](Cc1ncco1)c1nnc(C)n1-2 [I-62, (5R,6S)-6-phenyl-5-(4-(2-(4-((S)-2,3,9-trimethyl-6-(oxazol-2-ylmethyl)-6H-thieno[3,2-f][1,2,4]triazolo[4,3-a][1,4]diazepin-4-yl)benzyl)-7-azaspiro[3.5]nonan-7-yl)phenyl)-5,6,7,8-tetrahydronaphthalen-2-ol]	500 to 2500	50 to 500					
> 2500	CC1=C(c2c(F)cc(F)cc2F)[C@@H](c2ccc(N3CCN(CC4CCN(c5ccc(C6=N[C@H](C)c7nnc(C)n7-c7sc(C)c(C)c76)cc5)CC4)CC3)cc2)Oc2ccc(O)cc21 [V-25]	> 2500	> 2500					
	Cc1sc2c(c1C)C(c1ccc(N3CCN(c4ccc([C@@H]5c6ccc7n[nH]cc7c6C[C@@H](C)N5CC(F)(F)F)nc4)CC3)cc1)=N[C@@H](C)c1nnc(C)n1-2 [I-7, (S)-2,3,6,9-tetramethyl-4-(4-(4-(6-((6S,8R)-8-methyl-7-(2,2,2-trifluoroethyl)-6,7,8,9-tetrahydro-2H-pyrazolo[4,3-f]isoquinolin-6-yl)pyridin-3-yl)piperazin-1-yl)phenyl)-6H-thieno[3,2-f][1,2,4]triazolo[4,3-a][1,4]diazepine]			50 to 500	50 to 500	50 to 500		
< 50	Cc1sc2c(c1C)C(c1ccc(N3CC4(CC(CN5CCN(c6ccc([C@@H]7c8ccc(O)cc8CC[C@@H]7c7ccc(F)cc7)cc6F)CC5)C4)C3)cc1)=N[C@@H](C)c1nnc(C)n1-2 [III-282]	50 to 500	< 50					
50 to 500	Cc1sc2c(c1C)C(c1ccc(C3CN(C[C@H]4C[C@@H](CN5CC(c6ccc([C@@H]7c8ccc(O)cc8CC[C@@H]7c7ccccc7)cc6)C5)C4)C3)cc1)=N[C@@H](C)c1nnc(C)n1-2 [III-260]	500 to 2500	< 50					
50 to 500	Cc1sc2c(c1C)C(c1ccc(N3CCC(O)(CN4CCN(c5ccc([C@H]6c7ccc(O)cc7CC[C@H]6c6ccccc6F)c(F)c5)CC4)CC3)cc1)=N[C@@H](C)c1nnc(C)n1-2 [III-292]	50 to 500	50 to 500					
50 to 500	Cc1sc2c(c1C)C(c1ccc(N[C@H]3CC[C@H](NCCOc4ccc([C@@H]5c6ccc(O)cc6CC[C@@H]5c5ccccc5)cc4)CC3)cc1)=NC(Cc1ncco1)c1nnc(C)n1-2 (stereo partly drawn) [III-58]	50 to 500	< 50					
50 to 500	Cc1sc2c(c1C)C(c1ccc(N3CCC(O)(CN4CCN(c5ccc([C@@H]6c7ccc(O)cc7CC[C@@H]6c6ccc(F)cc6F)cc5)CC4)CC3)cc1)=N[C@@H](C)c1nnc(C)n1-2 [III-182]	500 to 2500	< 50					
< 50	Cc1sc2c(c1C)C(c1ccc(N3CCC(O)(CN4CCN(c5ccc([C@@H]6c7ccc(O)cc7CC[C@@H]6c6ccc(F)cc6)c(Cl)c5)CC4)CC3)cc1)=N[C@@H](C)c1nnc(C)n1-2 [III-305]	500 to 2500	< 50					
50 to 500	Cc1sc2c(c1C)C(c1ccc(N3CC(CCN4CC(COc5ccc([C@@H]6c7ccc(O)cc7CC[C@@H]6c6ccccc6)cc5)C4)C3)cc1)=N[C@@H](C)c1nnc(C)n1-2 [III-84]	500 to 2500	< 50					
50 to 500	CC1=C(c2c(F)cc(F)cc2F)[C@@H](c2ccc(OCC(=O)N3CCC4(CC3)CCN(c3ccc(C5=N[C@@H](C)c6nnc(C)n6-c6sc(C)c(C)c65)cc3)C4)cc2)Oc2ccc(O)cc21 [V-26]	50 to 500	< 50					
< 50	Cc1sc2c(c1C)C(c1ccc(N3CCC(CN4CC(COc5ccc([C@@H]6c7ccc(O)cc7CC[C@@H]6c6ccccc6)cc5)C4)CC3)cc1)=N[C@@H](Cc1ncco1)c1nnc(C)n1-2 [III-91]	500 to 2500	50 to 500					
500 to 2500	Cc1sc2c(c1C)C(c1ccc(C#CC3CC4(CCN(c5ccc([C@H]6c7ccc(O)cc7CC[C@H]6c6ccccc6)cc5)CC4)C3)cc1)=N[C@@H](Cc1ncco1)c1nnc(C)n1-2 [III-21]	> 2500	500 to 2500					
50 to 500	Cc1sc2c(c1C)C(c1ccc(N3CCC(O)(CN4CCN(c5ccc(C6=C(c7ccc(Cl)cc7Cl)CCCc7cc(C(=O)O)ccc76)cc5)CC4)CC3)cc1)=N[C@H](Cc1ncco1)c1nnc(C)n1-2 [IV-30]	500 to 2500	500 to 2500					
< 50	Cc1sc2c(c1C)C(c1ccc(N3CC(CN4CC(CC5CN(c6ccc(C7=C(c8ccccc8)CCCc8cc(C(=O)O)ccc87)cc6)C5)C4)C3)cc1)=N[C@@H](C)c1nnc(C)n1-2 [IV-36]	50 to 500	< 50					
50 to 500	CC1=C(c2c(F)cc(F)cc2F)[C@H](c2ccc(OCC(=O)N3CCC4(CC3)CCN(c3ccc(C5=N[C@@H](C)c6nnc(C)n6-c6sc(C)c(C)c65)cc3)C4)cc2)Oc2ccc(O)cc21 [V-27]	500 to 2500	< 50					
< 50	Cc1sc2c(c1C)C(c1ccc(OCCC3CCN(CCOc4ccc(C(=O)c5c(-c6ccc(O)cc6)sc6cc(O)ccc56)cc4)CC3)cc1)=N[C@@H](Cc1ncco1)c1nnc(C)n1-2 [I-13, (S)-(6-hydroxy-2-(4-hydroxyphenyl)benzo[b]thiophen-3-yl)(4-(2-(4-(2-(4-(2,3,9-trimethyl-6-(oxazol-2-ylmethyl)-6H-thieno[3,2-f][1,2,4]triazolo[4,3-a][1,4]diazepin-4-yl)phenoxy)ethyl)piperidin-1-yl)ethoxy)phenyl)methanone]						50 to 500	< 50
> 2500	Cc1sc2c(c1C)C(c1ccc(N3CCC(O)(CN4CCN(c5ccc([C@@H]6c7ccc(O)cc7CC[C@@H]6c6ccccc6)cc5)CC4)CC3)cc1)=N[C@@H](Cc1ncco1)c1nnc(C)n1-2 [III-143]	> 2500	> 2500					
< 50	Cc1sc2c(c1C)C(c1ccc(N3CCC(O)(CN4CCN(c5ccc(C6=C(c7ccc(Cl)cc7)CCCc7cc(C(=O)O)ccc76)cc5)CC4)CC3)cc1)=N[C@@H](C)c1nnc(C)n1-2 [IV-57]	500 to 2500	< 50					
50 to 500	CC1=C(c2c(F)cc(F)cc2F)[C@H](c2ccc(C3CCN(CC4CCN(c5ccc(C6=N[C@@H](C)c7nnc(C)n7-c7sc(C)c(C)c76)cc5)CC4)CC3)cc2)Oc2ccc(O)cc21 [V-12]	50 to 500	< 50					
< 50	Cc1sc2c(c1C)C(c1ccc(N3CCC(O)(CN4CCN(c5ccc([C@@H]6c7ccc(C(=O)O)cc7CC[C@@H]6c6ccc(F)cc6F)cc5)CC4)CC3)cc1)=NC(Cc1ncco1)c1nnc(C)n1-2 (stereo partly drawn) [III-214]	50 to 500	< 50					
> 2500	Cc1sc2c(c1C)C(c1ccc(N3CCC(O)(CN4CCN(c5ccc([C@H]6c7ccc(O)cc7CC[C@H]6c6ccc(F)cc6F)cc5)CC4)CC3)cc1)=N[C@H](Cc1ncco1)c1nnc(C)n1-2 [III-192]	> 2500	> 2500					
< 50	CC1=C(c2c(F)cc(F)cc2F)[C@H](c2ccc(N3CCC(CN4CCC5(CC4)CN(c4ccc(C6=N[C@@H](C)c7nnc(C)n7-c7sc(C)c(C)c76)cc4)C5)CC3)cc2)Oc2ccc(O)cc21 [V-19]	500 to 2500	< 50					
50 to 500	Cc1sc2c(c1C)C(c1ccc(N3CCC(N4CC(Oc5ccc([C@H]6c7ccc(O)cc7CC[C@H]6c6ccccc6)cc5)C4)CC3)cc1)=N[C@@H](C)c1nnc(C)n1-2 [III-8]	500 to 2500	500 to 2500					
< 50	Cc1sc2c(c1C)C(c1ccc(N3CC(C[C@H]4CC[C@H](CN5CC(c6ccc(C7=C(c8ccccc8)CCCc8cc(C(=O)O)ccc87)cc6)C5)CC4)C3)cc1)=N[C@@H](C)c1nnc(C)n1-2 [IV-24]	500 to 2500	< 50					
50 to 500	Cc1sc2c(c1C)C(c1ccc(N3CC(CN4CCN(CC5(O)CN(c6ccc([C@@H]7c8ccc(O)cc8CC[C@@H]7c7ccccc7)cc6)C5)CC4)C3)cc1)=N[C@@H](C)c1nnc(C)n1-2 [III-166]	50 to 500	< 50					
< 50	Cn1cc(-c2cc(C(C)(C)O)ccc2Oc2ccc(N3CC(CC4CCN(CCOc5ccc(C(=O)c6c(-c7ccc(O)cc7)sc7cc(O)ccc67)cc5)CC4)C3)cc2)c2cc[nH]c2c1=O [I-11, 4-(2-(4-(3-((1-(2-(4-(6-hydroxy-2-(4-hydroxyphenyl)benzo[b]thiophene-3-carbonyl)phenoxy)ethyl)piperidin-4-yl)methyl)azetidin-1-yl)phenoxy)-5-(2-hydroxypropan-2-yl)phenyl)-6-methyl-1,6-dihydro-7H-pyrrolo[2,3-c]pyridin-7-one]						< 50	< 50
50 to 500	Cc1sc2c(c1C)C(c1ccc(N3CC4(CCN(CC5CCN(c6ccc([C@H]7c8ccc(O)cc8CC[C@H]7c7ccccc7)cc6)CC5)CC4)C3)cc1)=N[C@@H](C)c1nnc(C)n1-2 [III-11]	50 to 500	< 50					
